Results: ChEMBL document CHEMBL5465560, “Selectivity Literature for EUbOPEN Chemogenomic Library” (2024)

How the values were obtained:
[1] = target: Histone-lysine N-methyltransferase PRDM9 (Homo sapiens) (UniProt Q9NQV7); assay: Selectivity interaction (Methyltransferase screen (Scintillation proximity assays)) EUB0000255b PRDM9
[2] = target: T1, Ephrin type-B receptor 4 (Homo sapiens) (UniProt P54760); assay: Selectivity interaction (ProQinase) EUB0000171b EPHB4
T1 sequence (whole entry): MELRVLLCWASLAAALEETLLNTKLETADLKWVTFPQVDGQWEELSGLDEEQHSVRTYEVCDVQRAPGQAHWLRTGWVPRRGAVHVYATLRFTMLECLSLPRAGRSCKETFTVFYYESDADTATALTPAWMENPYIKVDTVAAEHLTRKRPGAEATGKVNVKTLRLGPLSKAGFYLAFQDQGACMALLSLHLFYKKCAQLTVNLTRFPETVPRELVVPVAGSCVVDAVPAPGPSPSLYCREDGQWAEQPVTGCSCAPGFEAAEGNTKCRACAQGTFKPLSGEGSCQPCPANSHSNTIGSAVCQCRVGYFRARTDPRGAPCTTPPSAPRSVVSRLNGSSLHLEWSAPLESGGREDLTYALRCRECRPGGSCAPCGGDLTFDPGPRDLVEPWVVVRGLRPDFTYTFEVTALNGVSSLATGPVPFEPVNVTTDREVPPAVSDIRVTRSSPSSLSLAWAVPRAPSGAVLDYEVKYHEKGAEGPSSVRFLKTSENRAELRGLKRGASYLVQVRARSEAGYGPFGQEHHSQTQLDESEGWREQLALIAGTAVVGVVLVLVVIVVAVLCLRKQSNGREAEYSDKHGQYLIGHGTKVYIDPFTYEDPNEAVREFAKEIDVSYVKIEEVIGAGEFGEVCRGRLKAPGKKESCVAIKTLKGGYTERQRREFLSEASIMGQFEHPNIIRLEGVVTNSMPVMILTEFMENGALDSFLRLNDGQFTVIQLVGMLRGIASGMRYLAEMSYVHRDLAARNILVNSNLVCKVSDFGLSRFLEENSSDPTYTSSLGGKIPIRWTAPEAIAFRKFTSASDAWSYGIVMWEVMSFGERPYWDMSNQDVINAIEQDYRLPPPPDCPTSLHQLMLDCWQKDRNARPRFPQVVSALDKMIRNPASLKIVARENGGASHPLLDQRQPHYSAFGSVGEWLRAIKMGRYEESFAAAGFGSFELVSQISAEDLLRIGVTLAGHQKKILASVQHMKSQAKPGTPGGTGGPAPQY

[3] = target: Phosphorylase b kinase gamma catalytic chain, skeletal muscle/heart isoform (Homo sapiens) (UniProt Q16816); assay: Selectivity interaction (ProQinase) EUB0000171b PHKG1
Phosphorylase b kinase gamma catalytic chain, skeletal muscle/heart isoform (Homo sapiens), sequence (Q16816 whole entry, looked up, canonical isoform): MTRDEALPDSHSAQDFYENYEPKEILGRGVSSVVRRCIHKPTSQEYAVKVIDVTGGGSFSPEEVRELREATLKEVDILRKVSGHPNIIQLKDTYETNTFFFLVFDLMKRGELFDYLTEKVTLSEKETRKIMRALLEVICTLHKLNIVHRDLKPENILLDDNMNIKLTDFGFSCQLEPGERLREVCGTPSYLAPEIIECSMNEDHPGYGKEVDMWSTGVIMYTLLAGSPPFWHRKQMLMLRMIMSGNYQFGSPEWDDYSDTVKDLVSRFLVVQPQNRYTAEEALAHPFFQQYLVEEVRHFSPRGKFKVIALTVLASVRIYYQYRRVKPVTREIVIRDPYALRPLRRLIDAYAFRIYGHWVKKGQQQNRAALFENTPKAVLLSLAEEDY

[4] = target: Ribosomal protein S6 kinase beta-1 (Homo sapiens, UniProt P23443); assay: Selectivity interaction (ProQinase) EUB0000171b RPS6KB1
Ribosomal protein S6 kinase beta-1, sequence (P23443 whole entry, looked up, the tested form may be a part): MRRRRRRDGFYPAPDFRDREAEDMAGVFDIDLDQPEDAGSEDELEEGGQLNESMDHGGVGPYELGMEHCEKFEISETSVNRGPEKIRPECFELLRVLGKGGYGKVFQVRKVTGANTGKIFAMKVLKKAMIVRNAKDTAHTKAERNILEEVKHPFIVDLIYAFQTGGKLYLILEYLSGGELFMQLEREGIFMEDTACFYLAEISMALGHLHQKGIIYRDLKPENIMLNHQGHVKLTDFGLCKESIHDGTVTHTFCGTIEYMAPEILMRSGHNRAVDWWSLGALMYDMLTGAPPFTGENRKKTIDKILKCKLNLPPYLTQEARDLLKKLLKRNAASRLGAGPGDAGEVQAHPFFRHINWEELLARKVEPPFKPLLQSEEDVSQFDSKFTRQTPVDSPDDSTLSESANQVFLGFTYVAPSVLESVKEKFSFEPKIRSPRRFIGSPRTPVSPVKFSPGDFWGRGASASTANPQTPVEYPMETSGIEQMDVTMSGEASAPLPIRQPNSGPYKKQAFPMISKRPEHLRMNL

[5] = target: T2, Ankyrin repeat and protein kinase domain-containing protein 1 (Homo sapiens) (UniProt Q8NFD2); assay: Selectivity interaction (KinomeScan (DiscoverX)) EUB0000666a ANKK1; settings: at 10 µM
T2 sequence (whole entry): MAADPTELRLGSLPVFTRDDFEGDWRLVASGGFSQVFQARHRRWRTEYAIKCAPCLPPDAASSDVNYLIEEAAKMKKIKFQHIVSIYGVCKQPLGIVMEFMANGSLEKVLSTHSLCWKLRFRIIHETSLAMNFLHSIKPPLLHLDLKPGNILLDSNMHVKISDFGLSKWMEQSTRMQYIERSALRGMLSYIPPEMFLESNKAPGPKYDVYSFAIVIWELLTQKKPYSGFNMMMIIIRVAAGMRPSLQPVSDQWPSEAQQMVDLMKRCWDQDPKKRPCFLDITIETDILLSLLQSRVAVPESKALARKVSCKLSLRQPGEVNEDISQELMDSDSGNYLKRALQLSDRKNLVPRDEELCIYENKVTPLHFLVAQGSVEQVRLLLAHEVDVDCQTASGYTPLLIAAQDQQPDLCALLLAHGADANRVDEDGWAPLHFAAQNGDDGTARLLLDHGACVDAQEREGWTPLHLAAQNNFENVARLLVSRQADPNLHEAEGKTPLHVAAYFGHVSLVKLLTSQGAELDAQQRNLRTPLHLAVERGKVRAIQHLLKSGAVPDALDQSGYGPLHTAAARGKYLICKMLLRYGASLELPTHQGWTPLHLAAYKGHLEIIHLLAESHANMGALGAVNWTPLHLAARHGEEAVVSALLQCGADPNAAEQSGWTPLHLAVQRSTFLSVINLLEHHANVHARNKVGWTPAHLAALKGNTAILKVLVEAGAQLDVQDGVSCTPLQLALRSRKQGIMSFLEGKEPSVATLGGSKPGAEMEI

[6] = target: Cyclin-dependent kinase 17 (Homo sapiens) (UniProt Q00537); settings: at 10 µM
[7] = target: Serine/threonine-protein kinase 32A (Homo sapiens) (UniProt Q8WU08); settings: at 10 µM
Serine/threonine-protein kinase 32A (Homo sapiens), sequence (Q8WU08 whole entry): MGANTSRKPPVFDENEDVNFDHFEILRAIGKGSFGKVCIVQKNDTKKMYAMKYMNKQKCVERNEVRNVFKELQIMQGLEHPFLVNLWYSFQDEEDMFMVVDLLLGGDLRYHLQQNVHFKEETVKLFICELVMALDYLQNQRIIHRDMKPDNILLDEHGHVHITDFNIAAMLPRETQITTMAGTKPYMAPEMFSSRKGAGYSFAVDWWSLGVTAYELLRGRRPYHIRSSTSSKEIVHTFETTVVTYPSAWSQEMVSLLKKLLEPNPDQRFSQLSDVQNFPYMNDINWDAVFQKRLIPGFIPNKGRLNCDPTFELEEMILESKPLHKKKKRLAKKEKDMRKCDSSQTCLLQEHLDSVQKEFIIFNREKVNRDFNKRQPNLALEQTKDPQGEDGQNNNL

[8] = target: Beta-2 adrenergic receptor (Homo sapiens, UniProt P07550); assay: Selectivity interaction (Panel of kinases, GPCRs, ion channels and transporters (enzymatic assay)) EUB0000223bCl ADRB2
Beta-2 adrenergic receptor, sequence (P07550 whole entry, looked up): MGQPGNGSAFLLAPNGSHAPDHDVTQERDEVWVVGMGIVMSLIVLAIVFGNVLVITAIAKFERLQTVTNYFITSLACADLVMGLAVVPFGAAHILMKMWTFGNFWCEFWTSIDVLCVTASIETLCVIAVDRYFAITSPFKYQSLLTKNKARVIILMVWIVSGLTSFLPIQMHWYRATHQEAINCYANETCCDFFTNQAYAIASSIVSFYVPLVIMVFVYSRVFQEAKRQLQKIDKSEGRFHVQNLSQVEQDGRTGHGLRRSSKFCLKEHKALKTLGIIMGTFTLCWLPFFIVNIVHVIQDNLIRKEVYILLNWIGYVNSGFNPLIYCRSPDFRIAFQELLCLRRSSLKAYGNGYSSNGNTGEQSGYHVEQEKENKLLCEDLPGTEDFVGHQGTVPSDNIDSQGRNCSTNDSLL

[9] = target: Serine/threonine-protein kinase WNK3 (Homo sapiens) (UniProt Q9BYP7); assay: Selectivity interaction (KinomeScan (DiscoverX)) EUB0001049a WNK3; settings: at 1 µM
Serine/threonine-protein kinase WNK3 (Homo sapiens), sequence (Q9BYP7 whole entry): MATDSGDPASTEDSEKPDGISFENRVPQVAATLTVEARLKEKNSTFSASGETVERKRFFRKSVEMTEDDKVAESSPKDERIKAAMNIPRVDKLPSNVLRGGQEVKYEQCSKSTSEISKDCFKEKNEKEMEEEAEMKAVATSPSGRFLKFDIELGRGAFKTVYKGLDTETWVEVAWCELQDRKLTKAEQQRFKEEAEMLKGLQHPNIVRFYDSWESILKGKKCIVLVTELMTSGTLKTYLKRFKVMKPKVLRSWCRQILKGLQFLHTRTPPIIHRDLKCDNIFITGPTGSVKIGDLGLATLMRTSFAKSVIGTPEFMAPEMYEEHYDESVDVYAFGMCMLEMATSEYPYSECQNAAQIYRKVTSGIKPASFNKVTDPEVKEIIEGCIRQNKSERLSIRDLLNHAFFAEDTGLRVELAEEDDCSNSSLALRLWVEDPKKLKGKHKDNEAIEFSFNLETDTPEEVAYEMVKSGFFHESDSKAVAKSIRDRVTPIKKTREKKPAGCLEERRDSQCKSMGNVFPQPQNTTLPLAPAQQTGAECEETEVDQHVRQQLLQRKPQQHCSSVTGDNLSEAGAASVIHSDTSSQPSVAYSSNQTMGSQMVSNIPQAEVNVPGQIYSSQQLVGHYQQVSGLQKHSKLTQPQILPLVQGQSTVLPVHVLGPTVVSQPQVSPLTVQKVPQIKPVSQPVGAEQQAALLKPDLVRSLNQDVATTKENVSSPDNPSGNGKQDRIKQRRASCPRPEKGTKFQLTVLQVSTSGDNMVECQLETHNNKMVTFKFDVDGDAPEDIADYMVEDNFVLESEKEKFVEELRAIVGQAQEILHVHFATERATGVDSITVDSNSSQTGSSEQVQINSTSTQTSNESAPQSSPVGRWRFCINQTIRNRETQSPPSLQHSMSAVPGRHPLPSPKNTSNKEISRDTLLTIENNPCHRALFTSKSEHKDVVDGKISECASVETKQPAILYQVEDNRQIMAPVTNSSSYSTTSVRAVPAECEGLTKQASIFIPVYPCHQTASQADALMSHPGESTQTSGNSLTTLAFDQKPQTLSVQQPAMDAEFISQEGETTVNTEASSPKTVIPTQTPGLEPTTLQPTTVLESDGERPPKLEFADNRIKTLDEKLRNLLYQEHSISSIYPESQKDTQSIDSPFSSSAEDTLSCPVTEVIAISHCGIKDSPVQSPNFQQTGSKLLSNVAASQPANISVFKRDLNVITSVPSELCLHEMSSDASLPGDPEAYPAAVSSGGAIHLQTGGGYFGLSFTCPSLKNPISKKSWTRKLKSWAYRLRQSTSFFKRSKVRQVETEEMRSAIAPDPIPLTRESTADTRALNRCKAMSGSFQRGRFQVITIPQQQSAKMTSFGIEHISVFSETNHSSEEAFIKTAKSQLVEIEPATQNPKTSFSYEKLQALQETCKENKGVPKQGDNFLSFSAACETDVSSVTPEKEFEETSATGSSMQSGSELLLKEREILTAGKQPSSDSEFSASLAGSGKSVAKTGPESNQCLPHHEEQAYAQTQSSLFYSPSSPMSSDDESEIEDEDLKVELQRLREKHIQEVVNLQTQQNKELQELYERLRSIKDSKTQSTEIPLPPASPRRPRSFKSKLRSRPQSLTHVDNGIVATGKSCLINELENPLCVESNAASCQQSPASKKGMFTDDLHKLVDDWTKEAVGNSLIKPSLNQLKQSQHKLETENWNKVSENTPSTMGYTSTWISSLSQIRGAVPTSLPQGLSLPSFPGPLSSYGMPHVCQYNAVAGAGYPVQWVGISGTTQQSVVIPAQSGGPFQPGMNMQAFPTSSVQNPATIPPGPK

[10] = target: T3, Serine/threonine-protein kinase RIO3 (Homo sapiens) (UniProt O14730); assay: Selectivity interaction (Ambit KINOMEscan and KiNATiv profiling in Jurkat cells) EUB0000090b RIOK3; format: cell-based; settings: at 1 µM
T3 sequence (whole entry): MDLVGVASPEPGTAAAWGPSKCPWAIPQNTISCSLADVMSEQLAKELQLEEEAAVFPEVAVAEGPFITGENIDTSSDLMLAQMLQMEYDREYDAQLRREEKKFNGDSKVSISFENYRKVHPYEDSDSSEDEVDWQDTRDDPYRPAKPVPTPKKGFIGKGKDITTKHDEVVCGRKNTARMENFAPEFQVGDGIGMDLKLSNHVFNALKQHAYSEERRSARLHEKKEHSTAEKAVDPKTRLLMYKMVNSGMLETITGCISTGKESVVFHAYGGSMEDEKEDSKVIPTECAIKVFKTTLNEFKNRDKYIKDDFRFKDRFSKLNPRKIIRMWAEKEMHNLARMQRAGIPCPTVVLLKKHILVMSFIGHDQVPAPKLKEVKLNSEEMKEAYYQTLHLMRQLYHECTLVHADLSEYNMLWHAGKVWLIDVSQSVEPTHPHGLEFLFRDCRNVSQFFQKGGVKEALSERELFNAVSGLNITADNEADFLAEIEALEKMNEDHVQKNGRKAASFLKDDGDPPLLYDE

[11] = target: Casein kinase I isoform gamma-3 (Homo sapiens) (UniProt Q9Y6M4); assay: Selectivity interaction (KinomeScan (DiscoverX)) EUB0001619a CSNK1G3; settings: at 1 µM
Casein kinase I isoform gamma-3 (Homo sapiens), sequence (Q9Y6M4 whole entry, looked up, canonical isoform): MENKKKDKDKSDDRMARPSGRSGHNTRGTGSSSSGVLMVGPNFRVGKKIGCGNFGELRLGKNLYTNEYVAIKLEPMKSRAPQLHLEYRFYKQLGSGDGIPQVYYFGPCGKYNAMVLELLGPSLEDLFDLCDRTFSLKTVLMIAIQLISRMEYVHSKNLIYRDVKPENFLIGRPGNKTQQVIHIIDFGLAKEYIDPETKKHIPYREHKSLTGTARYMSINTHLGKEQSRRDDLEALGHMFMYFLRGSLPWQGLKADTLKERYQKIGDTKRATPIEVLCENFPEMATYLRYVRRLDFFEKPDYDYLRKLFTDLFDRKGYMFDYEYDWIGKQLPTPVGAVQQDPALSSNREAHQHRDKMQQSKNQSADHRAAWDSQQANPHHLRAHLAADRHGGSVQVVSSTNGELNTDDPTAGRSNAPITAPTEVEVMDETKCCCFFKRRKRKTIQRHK

Histone-lysine N-methyltransferase PRDM9 (Homo sapiens), sequence (Q9NQV7 whole entry): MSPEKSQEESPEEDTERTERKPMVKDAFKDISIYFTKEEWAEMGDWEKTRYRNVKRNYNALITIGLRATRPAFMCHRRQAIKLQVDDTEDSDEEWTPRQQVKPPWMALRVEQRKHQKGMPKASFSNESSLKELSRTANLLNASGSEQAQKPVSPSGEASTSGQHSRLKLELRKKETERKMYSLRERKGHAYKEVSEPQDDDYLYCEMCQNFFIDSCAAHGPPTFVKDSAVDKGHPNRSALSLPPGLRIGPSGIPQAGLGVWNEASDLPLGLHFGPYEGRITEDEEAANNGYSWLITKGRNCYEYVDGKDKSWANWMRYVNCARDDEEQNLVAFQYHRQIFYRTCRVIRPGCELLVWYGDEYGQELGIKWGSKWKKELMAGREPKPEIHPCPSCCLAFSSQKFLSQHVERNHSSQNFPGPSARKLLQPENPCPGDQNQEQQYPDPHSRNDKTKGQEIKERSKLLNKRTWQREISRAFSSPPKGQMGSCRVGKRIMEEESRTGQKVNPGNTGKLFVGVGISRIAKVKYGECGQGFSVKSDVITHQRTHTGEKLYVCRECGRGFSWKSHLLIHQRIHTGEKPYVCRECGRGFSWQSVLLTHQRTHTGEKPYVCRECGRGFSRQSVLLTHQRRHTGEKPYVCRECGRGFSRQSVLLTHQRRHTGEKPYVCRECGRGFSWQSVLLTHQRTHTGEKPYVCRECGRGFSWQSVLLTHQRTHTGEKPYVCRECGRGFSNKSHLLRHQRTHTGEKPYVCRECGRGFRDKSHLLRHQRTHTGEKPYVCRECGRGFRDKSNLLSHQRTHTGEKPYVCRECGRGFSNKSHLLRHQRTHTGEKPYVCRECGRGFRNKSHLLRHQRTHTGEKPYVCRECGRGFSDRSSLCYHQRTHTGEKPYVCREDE

COCCN1CCC(c2cc(CN(C)C(=O)c3cccc(Oc4ccccc4)c3)ccn2)CC1
% activity ([1]; at 1 µM): > 95%
% activity ([1]; at 10 µM): > 90%

C=CC(=O)Nc1cccc(C(=O)Nc2ccc(Nc3cc(-c4[nH]c(SC)nc4C)ccn3)cc2)c1
% of control ([2]; at 1 µM): 110%
% of control ([2]; at 5 µM): 111%
% of control ([3]; at 1 µM): 80%
% of control ([3]; at 5 µM): 44%
% of control ([4]; at 1 µM): 105%
% of control ([4]; at 5 µM): 87%

O=C(NOC[C@H](O)CO)c1ccc(F)c(F)c1Nc1ccc(I)cc1F
% of control [5]: 64%

Cc1cc([C@@H](C)Nc2ccccc2C(=O)O)c2nc(N3CCOCC3)cc(=O)n2c1 [AZD-6482]
% of control [6]: 100%
% of control [7]: 89%

COc1cc(C(=O)N2CC[C@@H](O)[C@@H](N)C2)cc2nc(-c3cc4ccccc4n3CC3CC3)n(C)c12
pXC50 [8]: < 4.5 M

COc1cc(Nc2nc(C)cc(-c3cnn4nc(OC)ccc34)n2)cc(C(F)(F)F)c1
% of control [9]: 81%

CN(C)C/C=C/C(=O)Nc1ccc(C(=O)N2CCCC(Nc3ncc(Cl)c(-c4c[nH]c5ccccc45)n3)C2)cc1 (stereo not given)
% of control [10]: 69%

N#Cc1cccc(-c2c[nH]c3ncnc(N4CCOCC4)c23)c1
% of control [11]: 100%
